Test results reported in publication PMC9854712 (Antioxidants, 2023).

Tests used:
[1] = system: HT-29 cells; assay: MTT cell viability assay, HT-29; type: cell-based; settings: 48 h; for viability at 10 µM: Homo sapiens, HT-29, 10 µM, read-out: Cell growth % at 10 µM, HT-29
Method: (§1) The cell lines were obtained from the American Type Culture Collection (ATCC). Five tumor cell lines (MDA-MB-231, MCF-7, HCT116, HTB-54, and DU-145) and two non-tumorigenic cells (184B5 and BEAS-2B) were grown in RPMI 1640 medium (Gibco), and the HT-29 tumor cell line was grown in McCoy’s medium. Both mediums were supplemented with 10% fetal bovine serum (FBS; Gibco) and 1% antibiotics (10.00 units/mL penicillin and 10.00 μg/mL streptomycin; Gibco). Cells were preserved in tissue culture flasks at 37 °C and 5% CO2. The culture medium was replaced every three days.
(§2) The effect of each compound on cell viability was tested using the MTT assay. […] Selected compounds were then tested at seven different concentrations (0.5–100 μM) in MCF-7, HCT116, HT-29, HTB-54, 184B5 and BEAS-2B cells. Cells were seeded at 10^4 per well onto flat-bottomed 96-well culture plates. They were treated with either DMSO or increasing concentration of the corresponding compound for 48 h. Then, they were incubated with 20 μL of 3-(4,5-dimethylthiazol-2-yl)-2,5-diphenyltetrazolium bromide (MTT) (2 mg /mL stock; Aldrich) for 2,5 h and analyzed for their ability to generate a purple formazan dye. These formazan crystals were dissolved in 50 μL of DMSO. The absorbance was measured at a wavelength of 550 nm and the ratio of viable cells was calculated.
(§3) Results are expressed as cell viability % at 10 μM. Selectivity index were calculated as the ratio of the IC50 values determined for the non-malignant and the tumor cells in breast (IC50 (184B5)/IC50 (MCF-7)) and lung (IC50 (BEAS-2B)/IC50 (HTB-54)) cell lines. Data were obtained from at least three independent experiments performed in triplicates.

[2] = system: HTB-54 cells; assay: MTT cell viability assay, HTB-54; type: cell-based; settings: 10 µM, 48 h, MTT; for viability at 10 µM: HTB-54, read-out: Cell growth % at 10 µM, HTB-54
Method: as §1, §2, §3

[3] = system: MDA-MB-231 cells; assay: MTT cell viability assay, MDA-MB-231; type: cell-based; settings: for viability at 10 µM: Homo sapiens, MDA-MB-231, 48 h, read-out: Cell growth % at 10 µM, MDA-MB-231
Method: as §1, §2, §3

[4] = system: DU-145 cells; assay: MTT cell viability assay, DU-145; type: cell-based; settings: for viability at 10 µM: Homo sapiens, DU-145, 48 h, read-out: Cell growth % at 10 µM, DU-145
Method: as §1, §2, §3

[5] = biological target: T1, AChE (Rattus norvegicus, UniProt P37136); assay: AChE inhibition by Ellman's method (rat frontal cortex homogenate); type: biochemical; settings: at 10^−6 M, Ellman's method
T1 construct: from tissue; host or cells: frontal cortex of male Wistar rats (crude homogenate)
T1 sequence (P37136 32-614): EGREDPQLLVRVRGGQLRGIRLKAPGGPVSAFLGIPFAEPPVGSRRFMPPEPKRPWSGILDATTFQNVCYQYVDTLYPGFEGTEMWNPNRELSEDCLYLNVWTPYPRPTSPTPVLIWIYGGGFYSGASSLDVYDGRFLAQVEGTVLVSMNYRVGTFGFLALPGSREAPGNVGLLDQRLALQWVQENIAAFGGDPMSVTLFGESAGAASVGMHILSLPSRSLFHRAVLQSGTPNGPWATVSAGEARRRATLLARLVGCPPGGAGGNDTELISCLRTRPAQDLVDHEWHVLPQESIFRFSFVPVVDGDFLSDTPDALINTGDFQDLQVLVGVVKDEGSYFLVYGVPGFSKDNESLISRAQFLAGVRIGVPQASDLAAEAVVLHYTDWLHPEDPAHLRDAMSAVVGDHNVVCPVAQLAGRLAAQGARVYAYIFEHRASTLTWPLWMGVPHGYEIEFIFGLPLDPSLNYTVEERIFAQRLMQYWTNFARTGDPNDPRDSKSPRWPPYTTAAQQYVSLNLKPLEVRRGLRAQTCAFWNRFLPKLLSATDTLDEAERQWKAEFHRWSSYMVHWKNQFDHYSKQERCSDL
Method: Frontal cortex tissue obtained from male Wistar rats was homogenized in 39 volumes of 75 mM sodium phosphate buffer (pH 7.4). A mixture of 260 μL containing the compounds assessed, acetylthiocholine iodide and 5 μL tissue homogenate was incubated for 8 min. The reaction was then terminated by adding 50 μL 3% (w/v) sodium dodecyl sulphate followed by 50 μL 0.2% (w/v) 5,5′-dithio-bis(2-nitrobenzoic) acid to produce the yellow anion of 5-thio-2-nitro-benzoic-acid. The extent of the color production was measured spectrophotometrically at 405 nm using Multiskan Ex (Thermo Electron Corporation). […] Results are expressed as the mean ± SD and each experiment was repeated three times.

Row | Compound | viability at 10 µM [1] | viability at 10 µM [2] | viability at 10 µM [3] | viability at 10 µM [4] | inhibition at 1 µM [5] | Cell growth % at 10 µM, HT-29 ([1]; 10 µM) | Cell growth % at 10 µM, HTB-54 [2] | Cell growth % at 10 µM, MDA-MB-231 ([3]; 48 h) | Cell growth % at 10 µM, DU-145 ([4]; 48 h) | % AChE Inhibition [5]
1 | C#CC[Se]C(=O)[C@@H](C)c1ccc2cc(OC)ccc2c1 [Compound 16b, Se-prop-2-ynyl (S)-2-(6-methoxynaphthalen-2-yl)propaneselenoate] | 65.7 ± 10% | > 100% | 29.8 ± 9.6% | 66.4 ± 4.4% | 16.2 ± 2.3% | – | – | – | – | –
2 | C#CC[Se]C(=O)CCc1ccccc1 [Compound 6b, Se-prop-2-ynyl 3-phenylpropaneselenoate] | – | 83.4 ± 7.7% | 78.9 ± 8.4% | 76.6 ± 12% | 24.5 ± 6.7% | – | – | – | – | –
3 | Se-prop-2-ynyl 3a,7a-dihydrobenzo[d][1,3]dioxole-5-carboselenoate [Compound 4b] | – | – | – | – | – | 50.6 ± 7.8% | 57.8 ± 8.1% | 62.6 ± 7.4% | 19.7 ± 2.2% | 16.5 ± 10.6%
4 | C#CC[Se]C(=O)/C=C/c1ccccc1 [Compound 5b, Se-prop-2-ynyl 3-phenylprop-2E-eneselenoate] | 80.8 ± 8.5% | 79.8 ± 7.7% | 64.8 ± 14.7% | 70.5 ± 11.5% | 26 ± 3.7% | – | – | – | – | –
5 | C#CC[Se]C(=O)c1ccccc1O [Compound 13b, Se-prop-2-ynyl 2-hydroxybenzoselenoate] | 70.2 ± 13.2% | 82.1 ± 7.6% | 52.3 ± 7.9% | 26.8 ± 5.5% | 21.5 ± 9.5% | – | – | – | – | –
6 | C#CC[Se]C(=O)C(C)c1ccc(CC(C)C)cc1 (stereo not shown) [Compound 15b, Se-prop-2-ynyl 2-(4-isobutylphenyl)propaneselenoate] | 59.3 ± 4% | 95.6 ± 5.7% | 59.7 ± 15.7% | 34.7 ± 6.3% | 8.5 ± 11.1% | – | – | – | – | –
7 | C#CC[Se]C(=O)c1ccccc1 [Compound 2b, Se-prop-2-ynyl benzoselenoate] | 78.3 ± 6.9% | 78.3 ± 11.4% | 79.3 ± 18.7% | 72.9 ± 13.6% | 26.9 ± 7.3% | – | – | – | – | –
8 | C#CC[Se]C(=O)c1cccnc1 [Compound 7b, Se-prop-2-ynyl pyridine-3-carboselenoate] | > 100% | 91.4 ± 6.6% | 91.3 ± 8.3% | 54.6 ± 4.5% | 24.9 ± 2.2% | – | – | – | – | –
9 | C=CC[Se]C(=O)c1ccccc1Cl [Compound 3a, Se-allyl 2-chlorobenzoselenoate] | 63.2 ± 16.9% | 37.5 ± 7.3% | 29.7 ± 6.4% | 39.8 ± 6.3% | 21.5 ± 7.5% | – | – | – | – | –
10 | C=CC[Se]C(=O)C12CC3CC(CC(C3)C1)C2 [Compound 1a, Se-allyl adamantane-1-carboselenoate] | 91 ± 3.6% | 72.1 ± 8.1% | 92.6 ± 12.7% | > 100% | 19.3 ± 4.1% | – | – | – | – | –
11 | C#CC[Se]C(=O)c1ccccc1Cl [Compound 3b, Se-prop-2-ynyl 2-chlorobenzoselenoate] | 81.8 ± 15.2% | > 100% | 93.2 ± 10.2% | 41.6 ± 3.5% | 23.7 ± 9% | – | – | – | – | –
12 | C=CC[Se]C(=O)c1cccnc1Cl [Compound 8a, Se-allyl 2-chloropyridine-3-carboselenoate] | 62.2 ± 16.1% | 25.8 ± 5.2% | 37.1 ± 4.7% | 49.5 ± 6.6% | 6.3 ± 4.1% | – | – | – | – | –
13 | C#CC[Se]C(=O)c1ccccc1Nc1cccc(C(F)(F)F)c1 [Compound 19b] | 61.6 ± 9.8% | 43.6 ± 18.4% | 92.8 ± 10.2% | 25.2 ± 2.2% | 21.1 ± 2.6% | – | – | – | – | –
14 | C=CC[Se]C(=O)CCc1ccccc1 [Compound 6a, Se-allyl 3-phenylpropaneselenoate] | 63.7 ± 12.3% | 36.3 ± 7% | 35.9 ± 2.6% | 26.9 ± 4.4% | 18.7 ± 12.4% | – | – | – | – | –
15 | C=CC[Se]C(=O)c1cccs1 [Compound 9a, Se-allyl thiophene-2-carboselenoate] | 99.5 ± 8.3% | 64.8 ± 8.5% | 89.4 ± 4.9% | 48.6 ± 6.2% | 25.9 ± 2.4% | – | – | – | – | –
16 | C#CC[Se]C(=O)Cc1c(C)n(C(=O)c2ccc(Cl)cc2)c2ccc(OC)cc12 [Compound 17b, Se-prop-2-ynyl 2-(1-(4-chlorobenzoyl)-5-methoxy-2-methyl-1H-indol-3-yl)ethaneselenoate] | 66.3 ± 10.2% | 85.9 ± 5.1% | 59.1 ± 11.5% | 19.2 ± 4% | 23 ± 6.7% | – | – | – | – | –
17 | C=CC[Se]C(=O)c1ccco1 [Compound 11a, Se-allyl 4-furan-2-carboselenoate] | 79.8 ± 16.3% | 30.7 ± 6.2% | 34.1 ± 10.6% | 35.3 ± 5.8% | 18.6 ± 2.8% | – | – | – | – | –
18 | C#CC[Se]C(=O)c1sccc1Cl [Compound 10b, Se-prop-2-ynyl 3-chlorothiophene-2-carboselenoate] | 80.2 ± 10.9% | 81.2 ± 11.6% | 62.5 ± 7.7% | 66.6 ± 8.7% | 24.4 ± 7.1% | – | – | – | – | –
19 | C=CC[Se]C(=O)c1ccc2c(c1)OCO2 [Compound 4a, Se-allyl benzodioxole-5-carboselenoate] | 33.6 ± 12.6% | 67.6 ± 15.1% | 97.3 ± 10.4% | > 100% | 2.5 ± 9.3% | – | – | – | – | –
20 | C#CC[Se]C(=O)c1ccccc1OC(C)=O [Compound 14b, 2-(prop-2-ynylselanyl)carbonylphenylacetate] | 65.6 ± 7.3% | 78.9 ± 9% | 52.3 ± 7.1% | 25.5 ± 6.2% | 21.1 ± 5.2% | – | – | – | – | –
21 | C=CC[Se]C(=O)c1cccnc1 [Compound 7a, Se-allyl pyridine-3-carboselenoate] | 64.3 ± 14.1% | 22 ± 5.1% | 35.3 ± 6.4% | 51.7 ± 9.8% | 13.6 ± 5.5% | – | – | – | – | –
22 | C#CC[Se]C(=O)c1ccco1 [Compound 11b, Se-prop-2-ynyl furan-2-carboselenoate] | > 100% | 75.4 ± 15.5% | 99 ± 11.2% | 70 ± 4.5% | 27.2 ± 4.1% | – | – | – | – | –
23 | C#CC[Se]C(=O)c1ccno1 [Compound 12b, Se-prop-2-ynyl isoxazole-5-carboselenoate] | 81.3 ± 11.1% | 97.6 ± 7.1% | 92.5 ± 15.1% | 95.1 ± 12.3% | 21.7 ± 7.9% | – | – | – | – | –
24 | C#CC[Se]C(=O)C12CC3CC(CC(C3)C1)C2 [Compound 1b, Se-prop-2-ynyl adamantane-1-carboselenoate] | 87.9 ± 12.1% | 86 ± 11.6% | 71.3 ± 8% | 62.7 ± 7.7% | 18 ± 7.9% | – | – | – | – | –
25 | C#CC[Se]C(=O)c1ccccc1Nc1cccc(C)c1C [Compound 18b, Se-prop-2-ynyl 2-(2,3-dimethylphenyl)aminobenzoselenoate] | 66.5 ± 9.5% | 62.3 ± 8.3% | 99 ± 11.2% | 32.6 ± 4.6% | 20 ± 2.4% | – | – | – | – | –
